Experimental data from ChEMBL document CHEMBL1201862, “PubChem BioAssay data set” (2004).
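Each compound was tested at five concentrations against cells in 96-well plates for 48 hours. GI50 marks 50% less growth.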 Active and inactive are the calls of the source. No stated cut-off is given here; in the data, active = GI50 up to about 1.1 µM and inactive = higher.

Key:
Assay in all cases: growth of human tumour cells (NCI), 48 h
A498 = test system: A498
HT-29 = test system: HT-29
DMS-114 = test system: DMS-114
UACC-62 = test system: UACC-62
Malme-3M = test system: Malme-3M
ACHN = test system: ACHN
MDA-MB-435 = test system: MDA-MB-435
M14 = test system: M14
CAKI-1 = test system: CAKI-1
DU-145 = test system: DU-145
KM12 = test system: KM12
XF498 = test system: XF498
HCC 2998 = test system: HCC 2998
NCI/ADR-RES = test system: NCI/ADR-RES
SK-MEL-2 = test system: SK-MEL-2
HOP-92 = test system: HOP-92
MDA-MB-231 = test system: MDA-MB-231
SK-MEL-5 = test system: SK-MEL-5
SF-539 = test system: SF-539
786-0 = test system: 786-0
K562 = test system: K562
SF-268 = test system: SF-268
MOLT-4 = test system: MOLT-4
COLO 205 = test system: COLO 205
NCI-H522 = test system: NCI-H522
SW-620 = test system: SW-620
RXF 631 = test system: RXF 631
SNB-19 = test system: SNB-19
SK-OV-3 = test system: SK-OV-3
CCRF-CEM = test system: CCRF-CEM
RXF 393 = test system: RXF 393
SN12C = test system: SN12C
UO-31 = test system: UO-31
EKVX = test system: EKVX
RPMI-8226 = test system: RPMI-8226
LXFL 529 = test system: LXFL 529
Hs-578T = test system: Hs-578T
T47D = test system: T47D
LOX IMVI = test system: LOX IMVI
U-251 = test system: U-251
DMS-273 = test system: DMS-273
OVCAR-3 = test system: OVCAR-3
OVCAR-4 = test system: OVCAR-4
HCT-116 = test system: HCT-116
NCI-H460 = test system: NCI-H460
NCI-H23 = test system: NCI-H23
TK-10 = test system: TK-10
HCT-15 = test system: HCT-15
HOP-62 = test system: HOP-62
PC-3 = test system: PC-3
A549 = test system: A549
M19-MEL = test system: M19-MEL
HL-60 = test system: HL-60
MCF7 = test system: MCF7
SK-MEL-28 = test system: SK-MEL-28
KM-20L2 = test system: KM-20L2
OVCAR-8 = test system: OVCAR-8
UACC-257 = test system: UACC-257
BT-549 = test system: BT-549
SNB-75 = test system: SNB-75
DLD-1 = test system: DLD-1
SR = test system: SR
SF-295 = test system: SF-295
MDA-N = test system: MDA-N
OVCAR-5 = test system: OVCAR-5
NCI-H226 = test system: NCI-H226
IGROV-1 = test system: IGROV-1
SNB-78 = test system: SNB-78
HOP-18 = test system: HOP-18

## Oc1ccc(Cn2c(-c3ccc(O)cc3)nc3ccccc32)cc1
A498
  GI50: > 100 µM (inactive)
HT-29
  GI50: > 100 µM (inactive)
DMS-114
  GI50: > 100 µM (inactive)
UACC-62
  GI50: > 100 µM (inactive)
Malme-3M
  GI50: > 100 µM (inactive)
ACHN
  GI50: > 100 µM (inactive)
MDA-MB-435
  GI50: > 100 µM (inactive)
M14
  GI50: > 100 µM (inactive)
CAKI-1
  GI50: > 100 µM (inactive)
DU-145
  GI50: > 100 µM (inactive)
KM12
  GI50: > 100 µM (inactive)
XF498
  GI50: > 100 µM (inactive)
HCC 2998
  GI50: > 100 µM (inactive)
NCI/ADR-RES
  GI50: > 100 µM (inactive)
SK-MEL-2
  GI50: > 100 µM (inactive)
HOP-92
  GI50: > 100 µM (inactive)
MDA-MB-231
  GI50: > 100 µM (inactive)
SK-MEL-5
  GI50: > 100 µM (inactive)
SF-539
  GI50: > 100 µM (inactive)
786-0
  GI50: > 100 µM (inactive)
K562
  GI50: > 100 µM (inactive)
SF-268
  GI50: > 100 µM (inactive)
MOLT-4
  GI50: > 100 µM (inactive)
COLO 205
  GI50: > 100 µM (inactive)
NCI-H522
  GI50: > 100 µM (inactive)
SW-620
  GI50: > 100 µM (inactive)
RXF 631
  GI50: > 100 µM (inactive)
SNB-19
  GI50: > 100 µM (inactive)
SK-OV-3
  GI50: > 100 µM (inactive)
CCRF-CEM
  GI50: > 100 µM (inactive)
RXF 393
  GI50: > 100 µM (inactive)
SN12C
  GI50: > 100 µM (inactive)
UO-31
  GI50: > 100 µM (inactive)
EKVX
  GI50: > 100 µM (inactive)
RPMI-8226
  GI50: > 100 µM (inactive)
LXFL 529
  GI50: > 100 µM (inactive)
Hs-578T
  GI50: > 100 µM (inactive)
T47D
  GI50: > 100 µM (inactive)
LOX IMVI
  GI50: > 100 µM (inactive)
U-251
  GI50: > 100 µM (inactive)
DMS-273
  GI50: > 100 µM (inactive)
OVCAR-3
  GI50: > 100 µM (inactive)
OVCAR-4
  GI50: > 100 µM (inactive)
HCT-116
  GI50: > 100 µM (inactive)
NCI-H460
  GI50: > 100 µM (inactive)
NCI-H23
  GI50: > 100 µM (inactive)
TK-10
  GI50: > 100 µM (inactive)
HCT-15
  GI50: > 100 µM
HOP-62
  GI50: > 100 µM (inactive)
PC-3
  GI50: > 100 µM (inactive)
A549
  GI50: > 100 µM (inactive)
M19-MEL
  GI50: > 100 µM (inactive)
HL-60
  GI50: > 31.6 µM (inactive)
MCF7
  GI50: > 100 µM (inactive)
SK-MEL-28
  GI50: > 100 µM (inactive)
KM-20L2
  GI50: > 100 µM (inactive)
OVCAR-8
  GI50: > 100 µM (inactive)
UACC-257
  GI50: > 100 µM (inactive)
BT-549
  GI50: > 100 µM (inactive)
SNB-75
  GI50: > 100 µM (inactive)
DLD-1
  GI50: > 100 µM (inactive)
SR
  GI50: > 31.6 µM (inactive)
SF-295
  GI50: > 100 µM (inactive)
MDA-N
  GI50: > 100 µM (inactive)
OVCAR-5
  GI50: > 100 µM (inactive)
NCI-H226
  GI50: > 100 µM (inactive)
IGROV-1
  GI50: > 100 µM (inactive)

## Cc1cc(Br)cc(C)c1NC(=O)C(=O)C(C(=O)c1ccc(Cl)c(Cl)c1)C1OC(=O)c2ccccc21 (centres undefined)
A498
  GI50: 26.3 µM (inactive)
HT-29
  GI50: 29.9 µM (inactive)
DMS-114
  GI50: 24.3 µM (inactive)
UACC-62
  GI50: 59.8 µM (inactive)
SNB-78
  GI50: 53.3 µM (inactive)
Malme-3M
  GI50: > 100 µM (inactive)
ACHN
  GI50: 28.5 µM (inactive)
M14
  GI50: > 100 µM (inactive)
CAKI-1
  GI50: 34.8 µM (inactive)
KM12
  GI50: 36.8 µM (inactive)
HCC 2998
  GI50: > 100 µM (inactive)
SK-MEL-2
  GI50: > 100 µM (inactive)
SF-539
  GI50: 25.2 µM (inactive)
786-0
  GI50: 86.1 µM (inactive)
K562
  GI50: 28.2 µM (inactive)
SF-268
  GI50: 39.8 µM (inactive)
MOLT-4
  GI50: 12.6 µM (inactive)
COLO 205
  GI50: 47.5 µM (inactive)
NCI-H522
  GI50: 36.5 µM (inactive)
SW-620
  GI50: > 100 µM (inactive)
RXF 631
  GI50: 29.6 µM (inactive)
SNB-19
  GI50: 82 µM (inactive)
SK-OV-3
  GI50: 49.5 µM (inactive)
CCRF-CEM
  GI50: 35.2 µM (inactive)
RXF 393
  GI50: > 100 µM (inactive)
SN12C
  GI50: 79.3 µM (inactive)
UO-31
  GI50: 26.2 µM (inactive)
EKVX
  GI50: 4.19 µM (inactive)
RPMI-8226
  GI50: 42.2 µM (inactive)
LXFL 529
  GI50: 59.3 µM (inactive)
LOX IMVI
  GI50: > 100 µM (inactive)
U-251
  GI50: 44.6 µM (inactive)
DMS-273
  GI50: 63.2 µM (inactive)
OVCAR-3
  GI50: 37.1 µM (inactive)
OVCAR-4
  GI50: > 100 µM (inactive)
HCT-116
  GI50: 48.4 µM (inactive)
NCI-H460
  GI50: > 100 µM (inactive)
NCI-H23
  GI50: 95.7 µM (inactive)
TK-10
  GI50: 70.8 µM (inactive)
HCT-15
  GI50: 50.2 µM
HOP-62
  GI50: 43.6 µM (inactive)
A549
  GI50: 74.3 µM (inactive)
M19-MEL
  GI50: 75.2 µM (inactive)
HL-60
  GI50: 24.5 µM (inactive)
KM-20L2
  GI50: 34.6 µM (inactive)
OVCAR-8
  GI50: > 100 µM (inactive)
UACC-257
  GI50: 36.7 µM (inactive)
DLD-1
  GI50: 12.4 µM (inactive)
SR
  GI50: 7.71 µM (inactive)
SF-295
  GI50: 90.6 µM (inactive)
OVCAR-5
  GI50: 21.7 µM (inactive)
NCI-H226
  GI50: 72.6 µM (inactive)
IGROV-1
  GI50: 91.2 µM (inactive)

## FC(F)(F)c1cccc2ns[s+]c12
A498
  GI50: > 100 µM (inactive)
HT-29
  GI50: > 100 µM (inactive)
UACC-62
  GI50: > 100 µM (inactive)
SNB-78
  GI50: > 100 µM (inactive)
Malme-3M
  GI50: > 100 µM (inactive)
ACHN
  GI50: > 100 µM (inactive)
M14
  GI50: > 100 µM (inactive)
CAKI-1
  GI50: > 100 µM (inactive)
KM12
  GI50: > 100 µM (inactive)
XF498
  GI50: > 100 µM (inactive)
HCC 2998
  GI50: > 100 µM (inactive)
SK-MEL-2
  GI50: > 100 µM (inactive)
SK-MEL-5
  GI50: 69.8 µM (inactive)
SF-539
  GI50: > 100 µM (inactive)
786-0
  GI50: > 100 µM (inactive)
K562
  GI50: > 100 µM (inactive)
SF-268
  GI50: > 100 µM (inactive)
MOLT-4
  GI50: > 100 µM (inactive)
COLO 205
  GI50: > 100 µM (inactive)
NCI-H522
  GI50: > 100 µM (inactive)
SW-620
  GI50: > 100 µM (inactive)
RXF 631
  GI50: > 100 µM (inactive)
SNB-19
  GI50: > 100 µM (inactive)
SK-OV-3
  GI50: > 100 µM (inactive)
CCRF-CEM
  GI50: > 100 µM (inactive)
RXF 393
  GI50: > 100 µM (inactive)
SN12C
  GI50: > 100 µM (inactive)
UO-31
  GI50: > 100 µM (inactive)
EKVX
  GI50: > 100 µM (inactive)
LXFL 529
  GI50: > 100 µM (inactive)
LOX IMVI
  GI50: > 100 µM (inactive)
U-251
  GI50: > 100 µM (inactive)
DMS-273
  GI50: > 100 µM (inactive)
OVCAR-3
  GI50: > 100 µM (inactive)
OVCAR-4
  GI50: > 100 µM (inactive)
HCT-116
  GI50: > 100 µM (inactive)
NCI-H460
  GI50: > 100 µM (inactive)
NCI-H23
  GI50: > 100 µM (inactive)
TK-10
  GI50: > 100 µM (inactive)
HOP-62
  GI50: > 100 µM (inactive)
A549
  GI50: > 100 µM (inactive)
M19-MEL
  GI50: > 100 µM (inactive)
HL-60
  GI50: > 100 µM (inactive)
SK-MEL-28
  GI50: > 100 µM (inactive)
KM-20L2
  GI50: > 100 µM (inactive)
OVCAR-8
  GI50: > 100 µM (inactive)
UACC-257
  GI50: > 100 µM (inactive)
SNB-75
  GI50: > 100 µM (inactive)
DLD-1
  GI50: 35 µM (inactive)
SR
  GI50: > 100 µM (inactive)
HOP-18
  GI50: > 100 µM (inactive)
SF-295
  GI50: > 100 µM (inactive)
OVCAR-5
  GI50: > 100 µM (inactive)
NCI-H226
  GI50: > 100 µM (inactive)
IGROV-1
  GI50: > 100 µM (inactive)

## CC[C@@]1(O)C[C@H](OC2CC(N(C)C)C(OC3CC(O)C(OC4CCC(=O)C(C)O4)C(C)O3)C(C)O2)c2c(cc3c(c2O)C(=O)c2c(O)cccc2C3=O)[C@H]1C(=O)OC (some centres undefined)
RXF 631
  GI50: 0.00711 µM (active)
CCRF-CEM
  GI50: 0.0229 µM (active)
RPMI-8226
  GI50: 0.0243 µM (active)
LXFL 529
  GI50: 0.00776 µM (active)
HL-60
  GI50: 0.0231 µM (active)
SK-MEL-28
  GI50: 0.0443 µM (active)
KM-20L2
  GI50: 0.0247 µM (active)
DLD-1
  GI50: 0.0238 µM (active)
HOP-18
  GI50: 0.0458 µM (active)
